According to US6413990B1, “Arylsulphonamide-substituted benzimidazoles having tryptase-inhibiting activity” (Boehringer Ingelheim Pharma KG, priority 1999, dated 2002):
Structures can show the parent of a compound that is named as a salt.

Molecular target: T1, rh beta tryptase (Homo sapiens, UniProt Q15661)
T1 construct: purchased Promega
Assay: tryptase inhibition test (cleavage of N-p-tosyl-Gly-Pro-Lys-para-nitroaniline, p-nitroaniline measured at 405 nm)
Assay type: biochemical
Settings: Tris HCl buffer pH 7.4 with calcium and heparin, 37° C., substrate 0.6 mM, 5 minutes pre-incubation, 5 minutes incubation
Protocol: The compounds according to the invention are characterised by their tryptase-inhibiting activity. This ability to inhibit tryptase was investigated using the test described below.
The measurement is carried out in Tris HCl buffer (100 mM), which additionally contains calcium (5 mM) and heparin ([…]), at pH 7.4. The standard used is rh beta tryptase which may be obtained commercially from Promega, for example. The substrate used is N-p-tosyl-Gly-Pro-Lys-para-nitroaniline in a concentration of 0.6 mM. The substrate is digested with tryptase to form p-nitroaniline which can be measured at 405 nm. Usually, an incubation period of 5 minutes and an incubation temperature of 37° C. are chosen. The enzyme activity used is 0.91 U/ml. The measurements are carried out in an Autoanalyser (Cobas Bio) made by Hofmann LaRoche. The potential inhibitory substances are used in concentrations of 10 μM in the screening, the inhibition of the tryptase being given in percent. The IC50 is determined at over 70% inhibition (concentration at which 50% of the enzyme activity is inhibited). After 5 minutes pre-incubation of the potential inhibitory substances, the substrate is added to start the reaction, the formation of p-nitroaniline being taken as a measurement of the enzyme activity after 5 minutes, after testing the linearity.
The data obtained after carrying out the tests described above (IC50 values) can be found in Table 2.

T1 sequence (Q15661 31-275): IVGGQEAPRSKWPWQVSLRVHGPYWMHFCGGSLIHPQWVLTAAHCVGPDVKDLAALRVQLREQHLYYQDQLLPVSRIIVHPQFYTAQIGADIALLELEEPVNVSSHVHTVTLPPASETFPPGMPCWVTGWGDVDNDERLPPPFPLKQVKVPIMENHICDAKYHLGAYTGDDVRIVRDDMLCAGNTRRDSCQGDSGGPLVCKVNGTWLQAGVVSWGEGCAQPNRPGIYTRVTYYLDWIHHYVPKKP

Q: For `CCN(CC)CCN(c1ccc2c(c1)nc(CCc1ccc(C(=N)N)cc1)n2C)S(=O)(=O)c1cccc(OC)c1` [Example 5, N-{2-[2-(4-amidinophenyl)-ethyl]-1-methyl-benzimidazol-5-yl}-N-diethylaminoethyl-(3-methoxy-benzenesulphonamide)-hydrochloride], which IC50 is on record?
A: The IC50 was 24 nM.

Q: For `CCN(CC)CCN(c1ccc2c(c1)nc(CCc1ccc(C(=N)N)cc1)n2C)S(=O)(=O)c1cccc(Br)c1` [Example 3, N-{2-[2-(4-amidinophenyl)-ethyl]-1-methyl-benzimidazol-5-yl}-N-diethylaminoethyl-(3-bromo-benzenesulphonamide)-hydrochloride], which IC50 is on record?
A: Its IC50 is 17 nM.

Q: Which IC50 does the source give for `CCN(CC)CCN(c1ccc2c(c1)nc(CCc1ccc(C(=N)N)cc1)n2C)S(=O)(=O)c1cccc([N+](=O)[O-])c1` [Example 28, N-{2-[2-(4-amidinophenyl)-ethyl]-1-methyl-benzimidazol-5-yl}-N-2-diethylaminoethyl-(3-nitro-benzenesulphonamide) dihydrochloride] here?
A: Its IC50 is 44 nM.

Q: With `CCN(CC)CCN(c1ccc2c(c1)nc(CCc1ccc(C(=N)N)cc1)n2C)S(=O)(=O)c1cccc(N)c1` [Example 29, N-{2-[2-(4-amidinophenyl)-ethyl]-1-methyl-benzimidazol-5-yl}-N-2-diethylaminoethyl-(3-amino-benzenesulphonamide) dihydrochloride] as the molecule, how does the IC50 read?
A: The IC50 was 52 nM.

Q: With `CCN(CC)CCN(c1ccc2c(c1)nc(CCc1ccc(C(=N)N)cc1)n2C)S(=O)(=O)c1cccc(C(F)(F)F)c1` [Example 18, N-{2-[2-(4-amidinophenyl)-ethyl]-1-methyl-benzimidazol-5-yl}-N-2-diethylaminoethyl-(3-trifluoromethyl-benzenesulphonamide) dihydrochloride] as the molecule, how does the IC50 read?
A: Its IC50 is 43 nM.

Q: For `CN(C)c1cccc2c(S(=O)(=O)N(Cc3ccncc3)c3ccc4c(c3)nc(CCc3ccc(C(=N)N)cc3)n4C)cccc12` [Example 25, N-{2-[2-(4-amidinophenyl)-ethyl]-1-methyl-benzimidazol-5-yl}-N-pyrid-4-ylmethyl-(dansylamide) dihydrochloride], which IC50 is on record?
A: The IC50 was 36 nM.

Q: Which IC50 does the source give for `CCN(CC)CCN(c1ccc2c(c1)nc(CCc1ccc(C(=N)N)cc1)n2C)S(=O)(=O)c1ccc(C(C)(C)C)cc1` [Example 21, N-{2-[2-(4-amidinophenyl)-ethyl]-1-methyl-benzimidazol-5-yl}-N-diethylaminoethyl-(4-tert-butyl-benzenesulphonamide) dihydrochloride] here?
A: The IC50 was 4.1 nM.

Q: For `Cn1c(CCc2ccc(C(=N)N)cc2)nc2cc(N(Cc3ccccc3)S(=O)(=O)c3ccc(C(C)(C)C)cc3)ccc21` [Example 26, N-{2-[2-(4-amidinophenyl)-ethyl]-1-methyl-benzimidazol-5-yl}-N-benzyl-(4-tert-butyl-benzenesulphonamide) dihydrochloride], which IC50 is on record?
A: Its IC50 is 7.6 nM.

Q: For `CCN(CC)CCN(c1ccc2c(c1)nc(CCc1ccc(C(=N)N)cc1)n2C)S(=O)(=O)c1ccc(N)cc1` [Example 8, N-{2-[2-(4-amidinophenyl)-ethyl]-1-methyl-benzimidazol-5-yl}-N-diethylaminoethyl-(4-amino-benzenesulphonamide)-tetrahydrochloride], which IC50 is on record?
A: The IC50 was 34 nM.

Q: With `CCN(CC)CCN(c1ccc2c(c1)nc(CCc1ccc(C(=N)N)cc1)n2C)S(=O)(=O)c1ccc(NC(C)=O)cc1` [Example 9, N-{2-[2-(4-amidinophenyl)-ethyl]-1-methyl-benzimidazol-5-yl}-N-diethylaminoethyl-(4-acetylamino-benzenesulphonamide)] as the molecule, how does the IC50 read?
A: Its IC50 is 44 nM.

Q: Which IC50 does the source give for `CCN(CC)CCN(c1ccc2c(c1)nc(CCc1ccc(C(=N)N)cc1)n2C)S(=O)(=O)c1cccc(Cl)c1` [Example 7, N-{2-[2-(4-amidinophenyl)-ethyl]-1-methyl-benzimidazol-5-yl}-N-diethylaminoethyl-(3-chloro-benzenesulphonamide)-hydrochloride] here?
A: Its IC50 is 30 nM.

Q: With `CCN(CC)CCN(c1ccc2c(c1)nc(CCc1ccc(C(=N)N)cc1)n2C)S(=O)(=O)c1cccc(C)c1` [Example 6, N-{2-[2-(4-amidinophenyl)-ethyl]-1-methyl-benzimidazol-5-yl}-N-diethylaminoethyl-(3-methyl-benzenesulphonamide)-hydrochloride] as the molecule, how does the IC50 read?
A: Its IC50 is 30 nM.

Q: Which IC50 does the source give for `CCN(CC)CCN(c1ccc2c(c1)nc(CCc1ccc(C(=N)N)cc1)n2C)S(=O)(=O)c1cccc(C(C)(C)c2ccccc2)c1` [Example 19, N-{2-[2-(4-amidinophenyl)-ethyl]-1-methyl-benzimidazol-5-yl}-N-2-diethylaminoethyl-[3-(1-methyl-1-phenyl-ethyl)-benzenesulphonamide] dihydrochloride] here?
A: The IC50 was 8.8 nM.

Q: For `CN(C)c1cccc2c(S(=O)(=O)N(Cc3ccccn3)c3ccc4c(c3)nc(CCc3ccc(C(=N)N)cc3)n4C)cccc12` [Example 22, N-{2-[2-(4-amidinophenyl)-ethyl]-1-methyl-benzimidazol-5-yl}-N-pyrid-2-ylmethyl-(dansylamide) dihydrochloride], which IC50 is on record?
A: The IC50 was 14 nM.

Q: Which IC50 does the source give for `CN(C)c1cccc2c(S(=O)(=O)N(Cc3cccnc3)c3ccc4c(c3)nc(CCc3ccc(C(=N)N)cc3)n4C)cccc12` [Example 23, N-{2-[2-(4-amidinophenyl)-ethyl]-1-methyl-benzimidazol-5-yl}-N-pyrid-3-ylmethyl-(dansylamide) dihydrochloride] here?
A: Its IC50 is 13 nM.

Q: For `CCN(CC)CCN(c1ccc2c(c1)nc(CCc1ccc(C(=N)N)cc1)n2C)S(=O)(=O)c1cc(C(F)(F)F)cc(C(F)(F)F)c1` [Example 16, N-{2-[2-(4-amidinophenyl)-ethyl]-1-methyl-benzimidazol-5-yl}-N-2-diethylaminoethyl-[3,5-di-(trifluoromethyl)-benzenesulphonamide] dihydrochloride], which IC50 is on record?
A: The IC50 was 25 nM.

Q: For `CCOC(=O)c1ccc(S(=O)(=O)N(CCN(CC)CC)c2ccc3c(c2)nc(CCc2ccc(C(=N)N)cc2)n3C)cc1` [Example 1, N-{2-[2-(4-amidinophenyl)-ethyl]-1-methyl-benzimidazol-5-yl}-N-diethylaminoethyl-(4-ethoxycarbonyl-benzenesulphonamide)-hydrochloride], which IC50 is on record?
A: Its IC50 is 9.7 nM.

Q: For `CCN(CC)CCN(c1ccc2c(c1)nc(CCc1ccc(C(=N)N)cc1)n2C)S(=O)(=O)c1ccc2cc(O)ccc2c1` [Example 17, N-{2-[2-(4-amidinophenyl)-ethyl]-1-methyl-benzimidazol-5-yl}-N-2-diethylaminoethyl-(6-hydroxy-naphth-2-ylsulphonamide) dihydrochloride], which IC50 is on record?
A: The IC50 was 280 nM.

Q: Which IC50 does the source give for `CCN(CC)CCN(c1ccc2c(c1)nc(CCc1ccc(C(=N)N)cc1)n2C)S(=O)(=O)c1ccc2cc(OC)ccc2c1` [Example 27, N-{2-[2-(4-amidinophenyl)-ethyl]-1-methyl-benzimidazol-5-yl}-N-diethylaminoethyl-(6-methoxy-naphth-2-ylsulphonamide) diacetate] here?
A: Its IC50 is 17.3 nM.

Q: With `CN(C)c1cccc2c(S(=O)(=O)N(CCN)c3ccc4c(c3)nc(CCc3ccc(C(=N)N)cc3)n4C)cccc12` [Example 20, N-{2-[2-(4-amidinophenyl)-ethyl]-1-methyl-benzimidazol-5-yl}-N-aminoethyl-(dansylamide) dihydrochloride] as the molecule, how does the IC50 read?
A: The IC50 was 22 nM.

Q: For `CCN(CC)CCN(c1ccc2c(c1)nc(CCc1ccc(C(=N)N)cc1)n2C)S(=O)(=O)c1cccc2cccc(Cl)c12` [Example 24, N-{2-[2-(4-amidinophenyl)-ethyl]-1-methyl-benzimidazol-5-yl}-N-diethylaminoethyl-(8-chloronaphth-1-ylsulphonamide) dihydrochloride], which IC50 is on record?
A: The IC50 was 13 nM.

Q: With `CCN(CC)CCN(c1ccc2c(c1)nc(CCc1ccc(C(=N)N)cc1)n2C)S(=O)(=O)c1ccc([N+](=O)[O-])cc1` [Example 4, N-{2-[2-(4-amidinophenyl)-ethyl]-1-methyl-benzimidazol-5-yl}-N-diethylaminoethyl-(4-nitro-benzenesulphonamide)-hydrochloride] as the molecule, how does the IC50 read?
A: The IC50 was 23 nM.

System: not given
Assay: not given
Settings: not given

Q: With `CCN(CC)CCN(c1ccc2c(c1)nc(CCc1ccc(C(=N)N)cc1)n2C)S(=O)(=O)c1ccc(N)cc1` (as salt: hydrochloride) [Example 8, N-{2-[2-(4-amidinophenyl)-ethyl]-1-methyl-benzimidazol-5-yl}-N-diethylaminoethyl-(4-amino-benzenesulphonamide)-tetrahydrochloride] as the molecule, how does the melting point read?
A: The melting point was 190 to 205 °C.

Q: With `CCN(CC)CCN(c1ccc2c(c1)nc(CCc1ccc(C(=N)N)cc1)n2C)S(=O)(=O)c1ccc(OC)cc1` (as salt: hydrochloride) [Example 12, N-{2-[2-(4-amidinophenyl)-ethyl]-1-methyl-benzimidazol-5-yl}-N-diethylaminoethyl-(4-methoxy-benzenesulphonamide)-trihydrochloride] as the molecule, how does the melting point read?
A: The melting point was 190 to 200 °C.

Q: With `CN(C)c1cccc2c(S(=O)(=O)N(C)c3ccc4c(c3)nc(CCc3ccc(C(=N)N)cc3)n4C)cccc12` (as salt: hydrochloride) [Example 13, N-{2-[2-(4-amidinophenyl)-ethyl]-1-methyl-benzimidazol-5-yl}-N-methyl-(dansylamide)-hydrochloride] as the molecule, how does the melting point read?
A: The melting point was 222 to 225 °C.

Q: For `CCN(CC)CCN(c1ccc2c(c1)nc(CCc1ccc(C(=N)N)cc1)n2C)S(=O)(=O)c1ccc(C(=O)O)cc1` (as salt: fumarate) [Example 14, N-{2-[2-(4-amidinophenyl)-ethyl]-1-methyl-benzimidazol-5-yl}-N-diethylaminoethyl-[4-carboxy-benzenesulphonamide]-fumarate], which melting point is on record?
A: Its melting point is 200 to 204 °C.
